The results in this text go back to patent US12589111B2, “Pt(IV) chemotherapeutic prodrug and controlled release thereof for treatment of tumors” (PEKING UNIVERSITY, priority 2020, dated 2026).

Where two headings read alike, the source gives them in different places.

One series deals with healthy mice. The following applies: for body weight of mice: dosed every third day. As to the method: In order to find the optimal dosage, we evaluated the effect of different doses of Oxaliplatin and prodrug on the health of healthy mice. In the same dosing way as in the treatment, the mice were dosed every third day, and then the body weight curve was recorded. […] Then ICP-MS was used to detect the concentration of the platinum drug in blood, tumor, liver and kidney respectively.
FIGS. 5 e-h show radiotherapy-driven release of Oxaliplatin for tumor treatment (n=6 mice per group). e, Tumor volume in individual mouse. f, Mean volume of tumors. The prodrug was injected intravenously for a total of 4 injections at a dose of 30 μmol/kg. One hour after intravenous injection, the tumor site in the irradiation group was irradiated with 4 Gy X-rays. Tumor volume in each group was measured every two days for 40 days. g, Survival curves of mice. According to the guidelines of Peking University Animal Ethics Committee, mice were sacrificed when the tumor volume reached 1500 mm^3. h, Body weight curves of mice.

In series [1] the test system is HCT116, HT29, LoVo and Ls513 (human colorectal cancer cell lines). The series can be described thus: Cytotoxicity to Oxaliplatin-sensitive cell lines. The format is cell-based.

On to `O=C1[O][Pt]2([NH][C@@H]3CCCC[C@H]3[NH]2)[O]C1=O` [Oxaliplatin], for which the “side effects from long-term survival and body weight curves” value with healthy mice (3 μmol/kg) is “no apparent side effects”. The figures for the “body weight of mice” value with healthy mice (3 μmol/kg) and with healthy mice (30 μmol/kg) were “did not reduce the body weight” and “lost severe weight”, respectively. For the same compound, in the series with healthy mice (more than 10 μmol/kg), the “side effects (weight loss)” value was “significant side effects”. Further, the maximum tolerated dose entry with healthy mice (nude mice, intravenous injection) is “about 3 μmol/kg”. In addition, in series [1], the IC50 entry is “about submicromolar level”.
